Columns and labels:
hEP1 [1] = molecular target: T1, hEP1 (Homo sapiens, UniProt P34995); test: Functional data, human recombinant EP1 receptor stable transfectants; type: cell-based
T1 construct: expressed in transfected cells
T1 sequence (P34995 1-402): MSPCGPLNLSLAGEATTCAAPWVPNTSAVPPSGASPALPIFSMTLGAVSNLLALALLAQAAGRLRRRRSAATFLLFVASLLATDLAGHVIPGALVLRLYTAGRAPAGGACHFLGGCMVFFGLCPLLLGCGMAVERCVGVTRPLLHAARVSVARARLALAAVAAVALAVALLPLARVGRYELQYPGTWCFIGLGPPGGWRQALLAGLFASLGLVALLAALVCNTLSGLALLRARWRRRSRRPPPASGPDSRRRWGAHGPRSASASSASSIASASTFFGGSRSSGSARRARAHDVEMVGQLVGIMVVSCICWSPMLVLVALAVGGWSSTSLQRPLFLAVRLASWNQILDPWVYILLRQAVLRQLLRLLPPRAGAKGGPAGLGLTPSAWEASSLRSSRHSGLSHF
Description: (§1) Human Recombinant EP1, EP2, EP3, EP4, FP, TP, IP and DP Receptors: Stable Transfectants
(§2) Plasmids encoding the human EP1, EP2, EP3, EP4, FP, TP, IP and DP receptors were prepared by cloning the respective coding sequences into the eukaryotic expression vector pCEP4 (Invitrogen). The pCEP4 vector contains an Epstein Barr virus (EBV) origin of replication, which permits episomal replication in primate cell lines expressing EBV nuclear antigen (EBNA-1). It also contains a hygromycin resistance gene that is used for eukaryotic selection. The cells employed for stable transfection were human embryonic kidney cells (HEK-293) that were transfected with and express the EBNA-1 protein. These HEK-293-EBNA cells (Invitrogen) were grown in medium containing Geneticin (G418) to maintain expression of the EBNA-1 protein. HEK-293 cells were grown in DMEM with 10% fetal bovine serum (FBS), 250 μg ml^−1 G418 (Life Technologies) and 200 μg ml^−1 gentamicin or penicillin/streptomycin.
For transfection, the cells were grown to 50-60% confluency on 10 cm plates. The plasmid pCEP4 incorporating cDNA inserts for the respective human prostanoid receptor (20 μg) was added to 500 μl of 250 mM CaCl2. HEPES buffered saline×2 (2×HBS, 280 mM NaCl, 20 mM HEPES acid, 1.5 mM Na2 HPO4, pH 7.05-7.12) was then added dropwise to a total of 500 μl, with continuous vortexing at room temperature. After 30 min, 9 ml DMEM were added to the mixture. The DNA/DMEM/calcium phosphate mixture was then added to the cells, which had been previously rinsed with 10 ml PBS. The cells were then incubated for 5 hr at 37° C. in humidified 95% air/5% CO2. The calcium phosphate solution was then removed and the cells were treated with 10% glycerol in DMEM for 2 min. The glycerol solution was then replaced by DMEM with 10% FBS. The cells were incubated overnight and the medium was replaced by DMEM/10% FBS containing 250 μg ml^−1 G418 and penicillin/streptomycin. The following day hygromycin B was added to a final concentration of 200 μg ml^−1.
Ten days after transfection, hygromycin B resistant clones were individually selected and transferred to a separate well on a 24 well plate. At confluence each clone was transferred to one well of a 6 well plate, and then expanded in a 10 cm dish. Cells were maintained under continuous hygromycin selection until use.

hEP1 [2] = molecular target: T1, hEP1; test: Radioligand binding, hEP1; conditions: [3H]PGE2 competition
Description: as §1
as §2, with “HEK-293 cells were grown in DMEM with 10% fetal bovine serum (FBS), 250 μg ml^−1 G418 (Life Technologies) and 200 μg ml^−1 gentamicin or penicillin/streptomycin.” left out
Radioligand binding studies on plasma membrane fractions prepared for cells stably transfected with the cat or human receptor were performed as follows. […] The pellet was then resuspended in TME buffer to provide a final protein concentration of 1 mg/ml, as determined by Bio-Rad assay. […]
The binding of [^3H](N) PGE2 (specific activity 165 Ci/mmol) was determined in duplicate and in at least 3 separate experiments. […] Competition studies were performed using a final concentration of 2.5 or 5 nM [^3H](N) PGE2 and non-specific binding was determined with 10^−5 M unlabelled PGE2.

EC50 (hEP1 [1]): > 10 µM | IC50 (hEP1 [2]): 5.8 µM
SMILES: O=C(O)CCCCCCN1C(=O)CC[C@@H]1CCC(O)Cc1cccc(Cl)c1 (stereo partly drawn) [Example 1, 7-[2S-[3R-Hydroxy-4-(chloro-phenyl)-butyl]-5-oxo-pyrrolidin-1-yl]-heptanoic acid]

— patent US6906097B2, “8-azaprostaglandin analogs as agents for lowering intraocular pressure” (Allergan, Inc., priority 2002, dated 2005)
